Experimental data published in patent publication US20260263401A1, “Topical composition and uses thereof” (UNIVERSIDADE DE COIMBRA, priority 2022, published 2026).

Experiments:
[1] = Cysteine depletion protocol (glutathione in solution depletion); conditions: FIG. 1A
Protocol: In an embodiment, Cysteine depletion Protocol-Glutathione in solution depletion protocol—“in house development protocol” was applied: • In a test tube, mix 10 μL of the 100 mM test chemical solution with 190 μL of GSH solution (20 μL of GSH 2 mM and 170 μL of PB) and Incubated at RT, protected from light, for 1 h in a tube roller (40 rpm) • […]; [test chemical]f=5 mM; [GSH]f=0.2 mM; • 20 μL of Ellman's reagent 10 mM, a thiol sensitive colorimetric reagent was added. Mix gently by tapping manually in the test tube and incubate for 10 min at RT, in a test tube rotator protected from light; • The absorbance was read in a microplate reader at 405 nm. • Note: For each assay, a fresh Glutathione stock of 50 mM (0.00768 g in 500 μL of PBS) and the second stock of 2 mM in PBS (2 μL of the […] solution+48 μl of PBS) were freshly prepared.
In an embodiment, Control and Test Chemical Preparation was applied: • DNFB is used as the positive control for the assay in every assay run. For the negative control LA is used and for the reference control three types of reference controls are included in each study: • Reference control A is made with the solvent DMSO, with incubation with Ellman's reagent and is used to calculate the maximum fluorescence or absorbance in the presence of CYS containing peptides. […]
Test Chemicals: In an embodiment, test chemicals were pre-weighted into 1.5 mL test tubes and dissolved in 1 mL of DMSO to prepare a 100 mM solution immediately before use. The weight of the test chemical to be added to the vial is determined based on the molecular weight and purity. […]
In an embodiment, for the data analysis, the percent depletion of peptide is determined by using the following formula: […]

THP-1 cells = experiment: Maturation of THP-1 cells assessed by up-regulation of co-stimulatory molecules CD86 and CD54
Protocol: In an embodiment, the THP-1 cell line has been used as a dendritic cell (DC) surrogate for skin sensitizers hazard, following the OECD guidelines. […] The THP-1 cells are stabilized overnight at a density of 5×10^5 cells/mL. On the day after, cells are seeded in 12-well plates at a density of 8×10^5 cells/well and incubated for 24 h with medium (control), Dimethyl sulfoxide (DMSO) (allergens solvent) or with 20 mM of each inhibitor of ACD (NAC), (LYS) or mixture (NAC+LYS). In addition, sensitization is induced with the strong skin allergen 1-fluoro-2,4-dinitrobenzene (DNFB) (8 μM) or Methylisothiazolinone (MI) (100 μM) for 24 h. At the end of the incubation period, cells are washed with ice-cold PBS supplemented with 1% (v/v) inactivated FBS, centrifuged at 300×g for 5 min at 4° C. and pellets are dissolved in ice-cold PBS supplemented with 1% (v/v) inactivated FBS. Then, 100 µL of the cell suspension are incubated with, or without, 3 μL of anti-human CD54 antibody (#353111, Biolegend, San Diego, CA, USA) or anti-human CD86 (#305414, Biolegend, San Diego, CA, USA) antibody for 30 min at 4° C. […] A total of 1×10^4 living cells are considered for analysis. The CD86 and CD54 levels are analyzed by flow cytometry with the acquisition channels FL1 and FL4. Based on the geometric mean fluorescence intensity (MFI), the relative fluorescence intensity (RFI) of CD86 and CD54 for positive control cells and chemical-treated cells is calculated according to the following equation: […]

[2] = system: NRF2 dependent genes in HaCaT; experiment: Expression of NRF2 dependent genes in keratinocytes (real time PCR); type: cell-based, human; conditions: 6 h
Protocol: HaCaT is cultured with Dulbecco's Modified Eagle's Medium (DMEM) (Sigma-Aldrich, St. Louis, MO, USA), supplemented with 10% (v/v) heat-inactivated fetal bovine serum (FBS), 1% (v/v) antibiotic solution (100 U/mL penicillin, 100 μg/mL streptomycin) (Gibco, Carlsbad, CA, USA), 3.7 g/L sodium bicarbonate and 1 mM sodium pyruvate (Sigma-Aldrich, St. Louis, MO, USA).
In an embodiment, HaCaT cells are seeded in 6-well plates at a density of 6×10^5 cells/well and allowed to adhere for 24 h. After that, cells are incubated for 24 h with exposure medium (control) or treated with 10 mM of NAC, 10 mM of LYS, 8 μM of DNFB, 100 μM of MI, or 10 mM+DNFB, 10 mM LYS+DNFB and 10 mM+MI, 10 mM LYS+MI for 6 h or 24 h.
In an embodiment, total RNA (ribonucleic acid) is extracted from HaCaT treated cells, as previously described by our group [37], with NZYol reagent, according to the manufacturer's instructions and its concentration is determined by OD260 measurement using a NanoDrop spectrophotometer (Thermo Scientific, Wilmington, DE, USA). Samples are stored in RNA Storage Solution at −80° C. until use. Total RNA (1 g) is reverse-transcribed using the iScript Select cDNA Synthesis Kit, and real-time reverse transcriptase-polymerase chain reaction (RT-PCR) reactions are performed, in duplicate for each sample, on a Bio-Rad MyCycler iQ5 (Hercules, CA, USA), as previously described by our group [38].
In an embodiment, after amplification, a threshold is set for each gene and Ct values are calculated for all samples. Gene expression changes are analyzed using Bio-Rad CFX Maestro 1.1 system software (Hercules, CA, USA). The results are normalized using Hprt-1 as the reference gene. Primer sequences are designed using Beacon Designer software version 7.7 (Premier Biosoft International, Palo Alto, CA, USA) and thoroughly tested.

[3] = In vitro permeation studies (IVPT), Franz cells; type: in vitro ADME, human; conditions: formulated in the hydrogel, single application, up to 24 h, non-occlusive
Text: In an embodiment, the same vertical diffusional system of IVRT studies was used to evaluate the potential in vitro penetration of the active molecules. Human surgical skin pieces (person, type 3 skin, arm tissue) were surgically removed at Central Lisbon University Hospital Centre, after the approval of the Bioethics Committee, and processed as described in (Miranda et al., 2020). Written informed consent was obtained from the participant (Process number 447/2017). One day before the experiments, frozen epidermal specimens were left to thaw at room temperate. Afterwards, the skin sheets, with the stratum corneum side facing up, were gently placed on glass flasks filled with ultrapurified water and left to stabilize overnight, at 4° C. […] NAC and LYS were quantified by RP-HPLC, as described in the section above. […]
In an embodiment, NAC and LYS were quantified by reversed-phase high-pressure liquid chromatography (RP-HPLC), using a Shimadzu LC-2010HT chromatographic system, equipped with an LC-20AD quaternary pump, a SIL-20AHT autosampler, a CTO-10AS over and an SPD-M2OA photodiode array detector. […] Using an injection volume of 50 μL, NAC and LYS were determined at 200 and 215 nm and eluted at 5.4 and 2.2 min, respectively.

[4] = system: keratinocyte cell line (HaCat); experiment: Metabolic activity of human keratinocytes (Resazurin Assay); type: cell-based
[5] = incubated before DNFB, vs DNFB alone
[6] = incubated before MI, vs MI alone

Row | Structure (SMILES) | reactivity of the strong allergen DNFB towards cysteine (Glutathione depletion) [1] | levels of the co-stimulatory molecules CD54 and CD86 (RFI), incubated alone (THP-1 cells; THP-1, 24 h, 20 mM, no allergen) | HMOX1 expression [2, 5] | NQO1 expression [2, 5] | quantity of the active molecules in the receptor compartment (penetration of stratum corneum of human skin) [3] | cytotoxicity (metabolic activity) [4] | CD54 and CD86 maturation levels, pre-incubation before allergen (THP-1 cells; pre-incubation (20 mM) before 24 h DNFB (8 μM) and MI (100 μM)) | HMOX1 expression [2, 6] | TRX1 expression [2, 6]
1 | NCCCC[C@H](N)C(=O)O [LYS, lysine] | significantly inhibit | do not significantly modify | significantly decrease | significantly decrease | below the limit of quantification | do not display cytotoxicity | – | – | –
2 | CC(=O)N[C@@H](CS)C(=O)O [NAC, n-acetyl cysteine] | significantly inhibit | – | significantly decrease | – | below the limit of quantification | do not display cytotoxicity | significantly decrease | significantly decrease | significantly decrease
